ChEMBL document CHEMBL3425406, “Design, Synthesis, and Evaluation of Tetrasubstituted Pyridines as Potent 5-HT2C Receptor Agonists” (ACS Med Chem Lett, 2015)

Legend:
[1] = molecular target: T1, 5-hydroxytryptamine receptor 2B (Homo sapiens, UniProt P41595); test: Agonist activity at human recombinant 5-HT2B receptor expressed in CHOK1 cells assessed as induction of Ca2+ mobilization after 1 hr by FLIPR assay; type: functional, cell-based, CHO-K1
[2] = molecular target: T1, 5-hydroxytryptamine receptor 2B; test: Agonist activity at human recombinant 5-HT2B receptor expressed in CHOK1 cells assessed as induction of Ca2+ mobilization at 30 uM after 1 hr by FLIPR assay relative to 5-HT; type: functional, cell-based; details: CHO-K1
[3] = Permeability across dog RRCK cells; type: ADME, cell-based, Canis lupus familiaris, MDCKII-LE; details: MDCK, read-out: permeability
[4] = Lipophilicity, log D of the compound; type: physicochemical; details: octanol/water
MDR1 [5] = test: Apparent permeability across apical to basolateral side in MDCK cells expressing MDR1; type: ADME, cell-based, Canis lupus familiaris; details: dog
MDR1 [6] = test: Efflux ratio of apparent permeability across basolateral to apical over apical to basolateral side in MDCK cells expressing MDR1; type: ADME, cell-based, Canis lupus familiaris; details: dog
[7] = molecular target: T1, 5-hydroxytryptamine receptor 2B; test: Inhibition of Cy3B conjugated serotonin analogue binding to human recombinant 5-HT2B receptor expressed in CHOK1 cells after 60 mins by fluorescence polarization assay; type: cell-based; details: CHO-K1

T1 sequence (P41595 whole entry): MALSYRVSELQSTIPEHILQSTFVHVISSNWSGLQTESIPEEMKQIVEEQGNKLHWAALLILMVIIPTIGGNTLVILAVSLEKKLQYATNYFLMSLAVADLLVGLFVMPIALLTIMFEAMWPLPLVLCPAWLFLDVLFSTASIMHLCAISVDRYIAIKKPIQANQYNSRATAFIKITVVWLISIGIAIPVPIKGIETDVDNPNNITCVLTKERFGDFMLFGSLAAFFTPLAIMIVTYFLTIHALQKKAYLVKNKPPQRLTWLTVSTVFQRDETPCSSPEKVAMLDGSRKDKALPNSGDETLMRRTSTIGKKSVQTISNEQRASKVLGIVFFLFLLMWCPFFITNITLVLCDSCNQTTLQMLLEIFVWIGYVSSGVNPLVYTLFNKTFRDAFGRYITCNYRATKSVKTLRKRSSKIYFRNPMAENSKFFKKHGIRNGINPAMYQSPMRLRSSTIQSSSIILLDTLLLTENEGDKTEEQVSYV

Row | SMILES | EC50 [1] | Emax [2] | Papp [3] | logD [4] | Papp A→B (MDR1 [5]) | efflux ratio (MDR1 [6]) | Kb [7]
1 | CC(C)Nc1nc(Cc2ccccc2)cc2c1CCNCC2 | 0.033 µM | 32% | 120 nm/s | 1 |  |  | 
2 | c1ccc(CNc2nc(Cc3ccccc3)cc3c2CCNCC3)cc1 |  |  | 20 nm/s | 1.7 | 6 nm/s | 3.6 | 0.121 µM
3 | CN(C)c1nc(Cc2ccccc2)cc2c1CCNCC2 | 0.03 µM | 38% | 80 nm/s | 0.6 | 21 nm/s | 2.2 | 
4 | CCNc1nc(Cc2ccccc2)cc2c1CCNCC2 | 0.018 µM | 28% | 70 nm/s | 0.6 | 18 nm/s | 2.3 | 
5 | c1ccc(Cc2cc3c(c(NCC4CC4)n2)CCNCC3)cc1 | 0.022 µM | 51% | 20 nm/s | 1.2 | 8 nm/s | 6.1 | 
6 | CC(C)CNc1nc(Cc2ccccc2)cc2c1CCNCC2 |  |  |  | 1.7 |  |  | 

The remaining compounds from weak to strong by EC50 [1], led by results:

Row | EC50 [1] | Emax [2] | Papp [3] | logD [4] | Papp A→B (MDR1 [5]) | efflux ratio (MDR1 [6]) | Kb [7] | SMILES
7 | 1.48 µM | 69% | 80 nm/s | 0.4 | 25 nm/s | 2.8 |  | CNc1nc(Cc2ccccc2)cc2c1CCNCC2
8 | 0.027 µM | 53% | 180 nm/s | 0.5 | 39 nm/s | 1.5 |  | c1ccc(Cc2cc3c(cn2)CCNCC3)cc1
9 | 0.027 µM | 38% | 40 nm/s | 1 | 15 nm/s | 3.5 |  | CCCNc1nc(Cc2ccccc2)cc2c1CCNCC2
